How the values were obtained:
L1210 leukemia [1] = assay: IP implanted L1210 leukemia in mice (CD2F1); type: in vivo
[2] = system: certain experimental tumor systems; details: Pettit et al, Can. J. Chem. 61, 2291-2294 (1983); cited from earlier work
L1210 leukemia [3] = assay: S.C. implanted L1210 leukemia in mice (CD2F1); type: in vivo
From the text: ^a Experimental formulation of mitindomide was used (NaOH + manitol).

[4] = background section; cited from earlier work
[5] = 18.0 mg/kg IP days 1-9, Expt. 1
[6] = 18.0 mg/kg IP days 1-9, Expt. 2
[7] = 18.0 mg/kg IP days 1-9, Expt. 3
[8] = 30.0 mg/kg IP days 1-9, Expt. 1
[9] = 30.0 mg/kg IP days 1-9, Expt. 2
[10] = 30.0 mg/kg IP days 1-9, Expt. 3
[11] = 50.0 mg/kg IP days 1-9, Expt. 1
[12] = 50.0 mg/kg IP days 1-9, Expt. 2
[13] = 50.0 mg/kg IP days 1-9, Expt. 3
[14] = 83.3 mg/kg IP days 1-9, Expt. 1
[15] = 83.3 mg/kg IP days 1-9, Expt. 2
[16] = 83.3 mg/kg IP days 1-9, Expt. 3
[17] = 18.0 mg/kg ip days 1-9, Expt. 1
[18] = 18.0 mg/kg ip days 1-9, Expt. 2
[19] = 30.0 mg/kg ip days 1-9, Expt. 1
[20] = 30.0 mg/kg ip days 1-9, Expt. 2
[21] = 50.0 mg/kg ip days 1-9, Expt. 1
[22] = 50.0 mg/kg ip days 1-9, Expt. 2
[23] = 83.3 mg/kg ip days 1-9, Expt. 1

For `O=C1NC(=O)[C@H]2[C@H]3C=C[C@@H]([C@@H]12)[C@@H]1[C@H]2C(=O)NC(=O)[C@H]2[C@H]31` [Mitindomide, 4,8-Ethenopyrrolo[3',4':3,4]cyclobut[1,2-f]-isoindole-1,3,5,7(2H,6H) tetrone, octahydro], the ILS (L1210 leukemia [1]; [5]) was 3%, the MST (L1210 leukemia [1]; [5]) was 9.0 days and the “Wt. Change” value (L1210 leukemia [1]; [5]) was 2.3 g. For the same compound, the ILS (L1210 leukemia [1]; [6]) was 10%, the MST (L1210 leukemia [1]; [6]) was 8.8 days and the “Wt. Change” value (L1210 leukemia [1]; [6]) was -0.7 g. The ILS (L1210 leukemia [1]; [7]) was 13%, the MST (L1210 leukemia [1]; [7]) was 9.3 days and the “Wt. Change” value (L1210 leukemia [1]; [7]) was 0.3 g. For the same compound, the ILS (L1210 leukemia [1]; [8]) was 49%, the MST (L1210 leukemia [1]; [8]) was 13.0 days and the “Wt. Change” value (L1210 leukemia [1]; [8]) was 1.2 g. The ILS (L1210 leukemia [1]; [9]) was 66%, the MST (L1210 leukemia [1]; [9]) was 13.3 days and the “Wt. Change” value (L1210 leukemia [1]; [9]) was -3.1 g. For the same compound, the ILS (L1210 leukemia [1]; [10]) was 86%, the MST (L1210 leukemia [1]; [10]) was 15.3 days and the “Wt. Change” value (L1210 leukemia [1]; [10]) was -2.2 g. The ILS (L1210 leukemia [1]; [11]) was 60%, the MST (L1210 leukemia [1]; [11]) was 14.0 days and the “Wt. Change” value (L1210 leukemia [1]; [11]) was 0.2 g. For the same compound, the ILS (L1210 leukemia [1]; [12]) was 103%, the MST (L1210 leukemia [1]; [12]) was 16.3 days and the “Wt. Change” value (L1210 leukemia [1]; [12]) was -3.9 g. The ILS (L1210 leukemia [1]; [13]) was 156%, the MST (L1210 leukemia [1]; [13]) was 21.0 days and the “Wt. Change” value (L1210 leukemia [1]; [13]) was -2.8 g. For the same compound, the ILS (L1210 leukemia [1]; [14]) was 6%, the MST (L1210 leukemia [1]; [14]) was 9.3 days and the “Wt. Change” value (L1210 leukemia [1]; [14]) was -2.5 g. The ILS (L1210 leukemia [1]; [15]) was 12%, the MST (L1210 leukemia [1]; [15]) was 9.0 days and the “Wt. Change” value (L1210 leukemia [1]; [15]) was -5.8 g. For the same compound, the ILS (L1210 leukemia [1]; [16]) was -3%, the MST (L1210 leukemia [1]; [16]) was 8.0 days and the “Wt. Change” value (L1210 leukemia [1]; [16]) was -4.5 g. For the same compound, the “Wt. Change” value (L1210 leukemia [1]; 138.9 mg/kg IP days 1-9, Expt. 1) was -5.6 g, the “Wt. Change” value (L1210 leukemia [1]; 138.9 mg/kg IP days 1-9, Expt. 3) was -5.5 g and the “inhibitory activity against certain experimental tumor systems” value [2] was “strong inhibitory activity”. The ILS (L1210 leukemia [3]; [17]) was 21%, the MST (L1210 leukemia [3]; [17]) was 10.0 days and the “Wt. Change” value (L1210 leukemia [3]; [17]) was 0.0 g. The ILS (L1210 leukemia [3]; [18]) was 12%, the MST (L1210 leukemia [3]; [18]) was 12.0 days and the “Wt. Change” value (L1210 leukemia [3]; [18]) was -0.1 g. For the same compound, the ILS (L1210 leukemia [3]; [19]) was 50%, the MST (L1210 leukemia [3]; [19]) was 12.3 days and the “Wt. Change” value (L1210 leukemia [3]; [19]) was -3.8 g. For the same compound, the ILS (L1210 leukemia [3]; [20]) was 42%, the MST (L1210 leukemia [3]; [20]) was 15.3 days and the “Wt. Change” value (L1210 leukemia [3]; [20]) was -1.6 g. The ILS (L1210 leukemia [3]; [21]) was 92%, the MST (L1210 leukemia [3]; [21]) was 15.8 days and the “Wt. Change” value (L1210 leukemia [3]; [21]) was -4.3 g. The ILS (L1210 leukemia [3]; [22]) was 136%, the MST (L1210 leukemia [3]; [22]) was 25.3 days and the “Wt. Change” value (L1210 leukemia [3]; [22]) was -4.2 g. The ILS (L1210 leukemia [3]; [23]) was 6%, the MST (L1210 leukemia [3]; [23]) was 8.7 days and the “Wt. Change” value (L1210 leukemia [3]; [23]) was -5.6 g. The “Wt. Change” value (L1210 leukemia [3]; 83.3 mg/kg ip days 1-9, Expt. 2) was -5.6 g and the solubility in water [4] was “virtually insoluble in water”.

From patent US4670461A, “Formaldehyde derivatives of mitindomide” (priority 1984, dated 1987)
